Assay [1] concerns diabetic wt mice. Briefly: Fasting glucose in diet-induced diabetic wild type mice. The assay is classed as in vivo, C57BI/6 mice. The conditions noted are these: wt mice diabetic by high fat diet and sweetened water; CPX 25 mg/kg daily (FIG. 5A). The source says:
In Vivo Analysis of Anti-Diabetic Effect of CPX. Mice were randomly grouped. A group of C57BI/6 mice 4-5 weeks old, were fed with either a solution of 10% sucrose and a diet containing 40% kcal as a high-fat diet (HFD; Open Source Diets (New Brunswick, N.J., USA) D12451, 40% calories/fat with free access to (10%) sweetened water (sucrose) or a control chow diet containing 10% of kcal as fat (low-fat diet) and drinking water with no added sucrose (control). Mice with a glucose concentration exceeding 180 mg/dL were considered diabetic, after 2 consecutive glucose measurements. The blood glucose levels were measured using an Accu-Check blood glucose monitor (Roche, Indianapolis, Ind., USA) using blood sample collected from the tail vein. Diabetic mice were treated with either treated daily for 20 days by oral gavages with CPX (25 mg/kg) prepared in a solution (4% ethanol, 5.2% Tween 80, and 5.2% PEG 400) or vehicle control. […] Glucose levels of mice were measured by an Accu-Chek Active meter (ROCHE) with blood sample obtained from the tail. […] For insulin resistance test, mice were injected intraperitoneally at a dose of 0.75 units/kg with human insulin (0.75 U/kg body weight; Sigma) at different time points as indicated, as for glucose tolerance after insulin injection and blood glucose was measured as described. […]

Assay [2] deals with C57BI/6 mice. Briefly: Glucose tolerance test (i.p. 2 g glucose/kg). The format is in vivo. As to the method:
Glucose Level Determination and Intraperitoneal Insulin Tolerance Test. Mice were fasted for 6 h. Glucose levels of mice were measured by an Accu-Chek Active meter (ROCHE) with blood sample obtained from the tail. For glucose tolerance, mice were injected i.p. with 2 g glucose/kg blood glucose was checked at different time points as indicated (at either 0, 30, 60, 90, 120, 160, 220 min.). For insulin resistance test, mice were injected intraperitoneally at a dose of 0.75 units/kg with human insulin (0.75 U/kg body weight; Sigma) at different time points as indicated, as for glucose tolerance after insulin injection and blood glucose was measured as described.

Assay [3] relates to BiP, GRP94 and CHOP. Briefly: Western blot of ER stress markers in islets in culture. The format is cell-based, mouse. As to the method: (§1) Western Blotting. The mouse islets were treated with CPX 20 μM for 24 h and lysed in RIPA buffer [50 mM Tris, pH 7.2; 150 mM NaCl; 1% sodium deoxycholate; 0.1% SDS; 1% Triton-X 100; 10 mM NaF; 1 mM Na3VO4; protease inhibitor cocktail (1:1000, Sigma, St. Louis, Mo.)] and were subjected to immunoblot analysis by standard methods. Proteins were resolved on a 10% SDS-PAGE and transferred to a nitrocellulose membrane (Bio-Rad, Hercules, Calif.). Membranes were probed overnight with GADD153 (F-168), sc-575 from Santa Cruz Biotechnology (1:50); p21 (F-5), sc-6246 from Santa Cruz Biotechnology (1:200); actin, clone C4 MAB1501 from Millipore (Billerica, Mass., USA) (1:2000); BiP antibody (cat. no. 3183) from Cell Signaling (Danvers, Mass., USA) (1:1000); GRP94 antibody (H-212), sc-11402 from Santa Cruz Biotechnology (1:500); insulin rabbit polyclonal H-86, sc-9168 from Santa Cruz Biotechnology (1:500) antibodies followed by incubation with horseradish peroxidase-conjugated (HRP) anti-mouse (1:10000), goat anti-rabbit IgG (1:10000, Santa Cruz biotechnology Inc., Santa Cruz, Calif., USA) for 1 hr. After incubation with enhanced chemiluminescence reagents (Santa Cruz biotechnology Inc.), membranes were analyzed using an Image J software for Windows.
(§2) In order to understand better how CPX operates in β cells, it was tested to determine if it affected the efficiency by which insulin is produced following glucose stimulation. […] In view of the antidiabetic activity of CPX in vivo, the inhibition of insulin release appears contradictory. […]
(§3) While modulation of insulin release by CPX constitutes a challenging mechanism by which CPX may affect ER stress, how CPX regulates insulin expression remains obscure. […] To test this hypothesis, islets were exposed to iron citrate, alone or combined with CPX, and the levels were recorded of chaperones BiP, GRP94 and CHOP, as well as of insulin.
On the technique in general: In western blotting, separated proteins are transferred to a membrane and probed.

For assay [4], the system named is insulin. Briefly: Western blot of insulin levels in islets in culture. The assay is classed as cell-based, mouse. How it is done: as §1, §2, §3
Where [5] appears, read: islets, iron citrate with concomitant CPX (FIG. 12A).

For the compound `Cc1cc(C2CCCCC2)n(O)c(=O)c1` [CPX, 6-cyclohexyl-1-hydroxy-4-methylpyridin-2(1H)-one], the “blood glucose levels (fasting glucose)” value in assay [1] is listed as “effectively improved glucose homeostasis causing reduction of blood glucose levels”. In addition, the glucose tolerance result in assay [2] (diabetic mice, CPX vs saline (FIG. 6A)) was “restored the response of diabetic mice to acute administration of glucose”; in assay [2] (non-diabetic wt mice on normal diet, CPX vs saline (FIG. 7B)), “not affected”. The “ER stress induction (BiP, GRP94, CHOP)” value in assay [3] (setting [5]) is given as “compromised the effects of iron citrate”. For the same compound, the “levels of BiP, GRP94 and CHOP” value in assay [3] (wt islets, high glucose with CPX (FIG. 11)) was “alleviated the levels of BiP, GRP94 and CHOP”. In addition, in assay [4] (islets in high glucose-containing media with CPX (FIG. 11B)), the “levels of intracellular insulin” value is on record as “moderate suppression”. For the same compound, the insulin production entry in assay [4] (setting [5]) was “compromised the effects of iron citrate”.
